According to US12534501B2, “Targeting deregulated Wnt signaling in cancer using stabilized alpha-helices of BCL-9” (Dana-Farber Cancer Institute, Inc., priority 2011, dated 2026):
Numbered stars: 1 amine (or outer) side, 2 acyl side, 3 side chain; on linkers, the order of the positions; unused ones are H or OH. Bridge positions count the residues as written; N and C are the ends. Square brackets hold non-standard residues; d marks the D form. Peptide text beside a SMILES is read from it. ξ: configuration not given here. ξαMeNle(6-ylidene) = CC(CCCC=[*:3])(N[*:1])C(=O)[*:2]; Nle = CCCC[C@H](N)C(=O)O

Tests used:
β-catenin = target: T1, β-catenin (Homo sapiens, UniProt P35222); assay: Anti-FITC / anti-β-catenin co-immunoprecipitation from lysates of peptide-treated cells; type: cell-based; settings: FITC and β-catenin immunoprecipitation, in situ
T1 construct: endogenous in cells; host or cells: Colo320
T1 sequence (P35222 1-781): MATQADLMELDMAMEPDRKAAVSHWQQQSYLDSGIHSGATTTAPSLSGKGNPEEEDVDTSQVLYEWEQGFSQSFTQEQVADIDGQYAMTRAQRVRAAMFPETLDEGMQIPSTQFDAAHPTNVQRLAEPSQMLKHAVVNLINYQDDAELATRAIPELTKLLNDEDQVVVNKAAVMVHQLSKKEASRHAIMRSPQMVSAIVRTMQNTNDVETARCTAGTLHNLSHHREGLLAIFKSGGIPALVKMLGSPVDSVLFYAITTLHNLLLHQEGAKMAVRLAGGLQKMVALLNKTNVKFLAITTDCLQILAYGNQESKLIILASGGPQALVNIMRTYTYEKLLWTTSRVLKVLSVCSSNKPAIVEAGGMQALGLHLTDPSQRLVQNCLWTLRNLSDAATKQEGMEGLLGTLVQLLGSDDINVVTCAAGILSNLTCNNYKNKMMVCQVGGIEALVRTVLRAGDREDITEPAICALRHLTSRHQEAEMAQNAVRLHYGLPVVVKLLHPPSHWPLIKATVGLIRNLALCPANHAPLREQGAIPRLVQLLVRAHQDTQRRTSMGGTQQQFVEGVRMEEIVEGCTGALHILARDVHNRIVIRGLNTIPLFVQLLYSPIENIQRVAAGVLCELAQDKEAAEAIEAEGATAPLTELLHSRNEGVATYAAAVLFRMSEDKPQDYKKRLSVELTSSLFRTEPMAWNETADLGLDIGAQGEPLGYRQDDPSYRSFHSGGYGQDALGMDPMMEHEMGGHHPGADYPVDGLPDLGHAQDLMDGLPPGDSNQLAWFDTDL
Description: Western blotting, performed as described (Sukhdeo, K. et al. Proc Natl Acad Sci USA 104, 7516-21 (2007)), employed the following primary antibodies: BCL9 (6109) (Mani, M. et al. Cancer Res 69, 7577-86 (2009)), BCL9 (ab37305, Abcam), B9L (AF4967, R&D Systems), β-catenin (CAT5-H10, Zymed), FITC (ab19224, Abcam), Actin-HRP (C-11, Santa Cruz), Caspase3 (#9662, Cell Signaling), IκBα (#9242, Cell signaling), PARP (#9542, Cell Signaling), E-cadherin (#3195, Cell Signaling), and Lamin B (sc-6217, Santa Cruz). Horseradish peroxidase conjugated secondary antibodies were purchased from Santa Cruz and SouthernBiotech. Co-immunoprecipitation was performed as described (Walensky, L. D. et al. Science 305, 1466-70 (2004)). Briefly, cells were lysed in 50 mM Tris, 150 mM NaCl, and 1% CHAPS buffer containing protease and phosphatase inhibitors. Lysates were precleared with Protein A/G PLUS-agarose beads (Santa Cruz Biotechnologies) for 3 hours followed by overnight incubation at 4° C. with the respective antibodies. Agarose A/G beads were then added for 4 h, pelleted, and washed as described (Walensky, L. D. et al. Science 305, 1466-70 (2004)). See results in FIG. 1D, FIG. 1H, FIG. 2A, FIG. 8.

[1] = system: TCF regulatory sequences (7×TdG) in Colo320 cells; assay: dGFP reporter under TCF regulatory sequences (7×TdG); type: cell-based
Description: A lentiviral reporter vector containing seven TCF/LEF-1 binding motifs and a minimal promoter driving destabilized GFP expression (7×TdG) was derived from the lentiviral vector TOP-dGFP, which contains three TCF/LEF-1 binding motifs (Sukhdeo, K. et al. Proc Natl Acad Sci USA 104, 7516-21 (2007)). Two synthetic complementary oligonucleotides (IDT-DNA) with four TCF/LEF-1 binding motifs (GATCAAAGG) were designed to generate compatible overhanging ends for annealing to an Xba1 restriction site. The oligonucleotides were annealed by heating to 95° C. and slow cooling to room temperature, followed by ligating into the Xba1-linearized TOP-dGFP vector, yielding 7×TdG. For construction of the control vector carrying seven FOP-sites (7×FdG), the 7×TOP cassette was removed from the 7×TdG vector by restriction digesting with Xma1 and Age1. A synthetic cassette carrying seven FOP sites (GGCCAAAGG) but otherwise identical to the removed 7×TOP cassette was inserted, yielding 7×FdG. BCL9 shRNA and control shRNA lentiviral vectors were generated as reported (Sampietro, J. et al. Mol Cell 24, 293-300 (2006)). See results in FIG. 10, FIG. 11B. […]
Colo320 cells were subjected to infection for 72 h with either 7×TdG or 7×FdG lentivirus, and the transduced and control non-transduced cells were trypsinized, washed, and then analyzed on a FACSaria flow sorter. […]

| Compound | β-catenin interaction by co-immunoprecipitation (β-catenin) | dGFP expression [1] |
| --- | --- | --- |
| CCCC[C@H](NC(=O)[C@H](CCCNC(=N)N)NC(=O)[C@H](CCC(N)=O)NC(=O)[C@@H](NC(=O)C1(C)CCCC=CCCCC(C)(NC(=O)[C@H](CC(C)C)NC(=O)[C@H](CO)NC(=O)[C@H](CCCNC(=N)N)NC(=O)[C@H](CCC(=O)O)NC(=O)[C@H](CCCNC(=N)N)NC(=O)[C@H](Cc2c[nH]cn2)NC(=O)[C@H](CCC(=O)O)NC(=O)[C@H](CC(C)C)NC(=O)[C@H](CCC(N)=O)NC(=O)[C@H](CCC(=O)O)NC(=O)[C@H](CCC(N)=O)NC(=O)[C@H](CO)NC(=O)[C@H](CC(C)C)NC(C)=O)C(=O)N[C@@H]([C@@H](C)O)C(=O)N[C@@H](CC(C)C)C(=O)N[C@@H](CCCNC(=N)N)C(=O)N1)[C@@H](C)CC)C(=O)N[C@@H](CC(C)C)C(=O)N[C@@H](Cc1ccccc1)C(N)=O (stereo partly shown) [SAH-BCL9B] (Ac-LSQEQLEHRERSL[ξαMeNle(6-ylidene)]TLR[ξαMeNle(6-ylidene)]IQR[Nle]LF-NH2; staple 14-18) | most effective β-catenin interactor in situ | dose-responsively blocked dGFP expression |
| SAH-BCL9B(R359E): SEQ ID NO: 7: LSQEQLEHEERSLXTLRXIQRBLF; reverse polarity point mutant, negative control of SAH-BCL9B | impaired β-catenin interaction | little to no effect |
